Results reported in ChEMBL document CHEMBL1157348, “The alkaloid conessine and analogues as potent histamine H3 receptor antagonists” (J Med Chem, 2008).

Tests used:
Histamine H3 receptor [1] = biological target: T1, Histamine H3 receptor (Rattus norvegicus, UniProt Q9QYN8); assay: Displacement of [3H]NAMH from histamine H3 receptor in rat cortex
Histamine H3 receptor [2] = biological target: T2, Histamine H3 receptor (Homo sapiens, UniProt Q9Y5N1); assay: Displacement of [3H]NAMH from human full length histamine H3 receptor expressed in rat C6 cells; type: cell-based
T2 sequence (Q9Y5N1 whole entry): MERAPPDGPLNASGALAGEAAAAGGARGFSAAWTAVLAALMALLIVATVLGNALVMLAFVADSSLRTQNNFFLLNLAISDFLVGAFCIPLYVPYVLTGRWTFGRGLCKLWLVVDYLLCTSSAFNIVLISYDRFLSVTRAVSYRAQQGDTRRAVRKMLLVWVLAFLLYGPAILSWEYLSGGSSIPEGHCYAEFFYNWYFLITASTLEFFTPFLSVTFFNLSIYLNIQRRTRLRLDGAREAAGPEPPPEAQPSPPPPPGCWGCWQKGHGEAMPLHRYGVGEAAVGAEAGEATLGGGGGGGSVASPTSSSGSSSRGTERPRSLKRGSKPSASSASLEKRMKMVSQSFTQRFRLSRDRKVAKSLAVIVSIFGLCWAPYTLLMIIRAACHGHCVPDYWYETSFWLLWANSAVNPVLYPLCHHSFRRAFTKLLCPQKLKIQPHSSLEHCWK

[3] = Displacement of [3H]LY278584 from 5HT1 receptor in rat frontal cortex; type: tissue-based
Histamine H3 receptor [4] = biological target: Histamine H3 receptor (Cavia porcellus, UniProt Q9JI35); assay: Antagonist activity at histamine H3 receptor in guinea pig ileum assessed as inhibition of (R)-alpha-methylhistamine-induced response
Sequence of Histamine H3 receptor (Cavia porcellus, UniProt Q9JI35) (Q9JI35 whole entry): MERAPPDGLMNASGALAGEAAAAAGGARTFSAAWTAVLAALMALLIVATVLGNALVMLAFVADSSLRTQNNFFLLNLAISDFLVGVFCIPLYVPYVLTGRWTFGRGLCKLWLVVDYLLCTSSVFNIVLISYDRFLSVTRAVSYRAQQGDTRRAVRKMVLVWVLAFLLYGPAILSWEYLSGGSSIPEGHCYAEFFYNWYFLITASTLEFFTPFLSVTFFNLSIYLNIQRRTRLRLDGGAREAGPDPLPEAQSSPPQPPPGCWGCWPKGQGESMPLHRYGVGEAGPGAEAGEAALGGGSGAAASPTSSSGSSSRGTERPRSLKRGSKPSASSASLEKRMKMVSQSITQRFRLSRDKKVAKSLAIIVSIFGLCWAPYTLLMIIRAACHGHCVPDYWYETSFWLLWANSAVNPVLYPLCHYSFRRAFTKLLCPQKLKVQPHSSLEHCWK

[5] = Displacement of [3H]LY278584 from 5HT3 receptor in rat frontal cortex; type: tissue-based
[6] = biological target: Histamine H3 receptor (Rattus norvegicus) (UniProt Q9QYN8); assay: Antagonist activity at rat full length histamine H3 receptor assessed as inhibition of (R)-alpha-methylhistamine-induced intracellular calcium release by FLIPR; type: functional, cell-based
Sequence of Histamine H3 receptor (Rattus norvegicus) (Q9QYN8 whole entry): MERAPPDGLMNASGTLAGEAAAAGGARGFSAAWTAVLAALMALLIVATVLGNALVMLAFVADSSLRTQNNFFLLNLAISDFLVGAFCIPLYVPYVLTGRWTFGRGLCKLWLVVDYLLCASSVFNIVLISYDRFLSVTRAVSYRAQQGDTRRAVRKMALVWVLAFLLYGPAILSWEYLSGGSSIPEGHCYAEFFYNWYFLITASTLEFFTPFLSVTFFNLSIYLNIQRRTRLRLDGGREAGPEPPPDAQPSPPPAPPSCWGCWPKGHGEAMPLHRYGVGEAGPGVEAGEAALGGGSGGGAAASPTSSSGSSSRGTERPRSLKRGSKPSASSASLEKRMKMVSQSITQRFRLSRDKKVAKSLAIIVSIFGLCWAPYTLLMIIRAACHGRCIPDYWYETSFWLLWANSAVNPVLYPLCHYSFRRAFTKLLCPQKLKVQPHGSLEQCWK

Histamine H3 receptor [7] = biological target: T2, Histamine H3 receptor; conditions: C6
[8] = biological target: Histamine H3 receptor (Rattus norvegicus) (UniProt Q9QYN8); assay: Antagonist activity at rat full length histamine H3 receptor expressed in HEK cells assessed as inhibition of forskolin-induced cAMP accumulation by SPA; conditions: HEK293
[9] = biological target: Histamine H3 receptor (Rattus norvegicus) (UniProt Q9QYN8); assay: Antagonist activity at rat full length histamine H3 receptor expressed in rat C6 cells assessed as inhibition of [35S]gammaGTP binding relative to control; type: cell-based
Histamine H3 receptor [10] = biological target: T2, Histamine H3 receptor; assay: Antagonist activity at human full length histamine H3 receptor expressed in HEK293 cells assessed as inhibition of (R)-alpha-methylhistamine-induced intracellular calcium release by FLIPR; type: functional, cell-based
[11] = Displacement of [3H]LY278584 from 5HT2 receptor in rat frontal cortex; type: tissue-based
Histamine H3 receptor [12] = biological target: T2, Histamine H3 receptor; conditions: HEK293
Histamine H4 receptor = Histamine H4 receptor (Homo sapiens, UniProt Q9H3N8); assay: Displacement of [3H]histamine from human histamine H4 receptor expressed in HEK cells; type: cell-based, HEK293; conditions: read-out: pKi (converted)
Sequence of Histamine H4 receptor (Q9H3N8 whole entry): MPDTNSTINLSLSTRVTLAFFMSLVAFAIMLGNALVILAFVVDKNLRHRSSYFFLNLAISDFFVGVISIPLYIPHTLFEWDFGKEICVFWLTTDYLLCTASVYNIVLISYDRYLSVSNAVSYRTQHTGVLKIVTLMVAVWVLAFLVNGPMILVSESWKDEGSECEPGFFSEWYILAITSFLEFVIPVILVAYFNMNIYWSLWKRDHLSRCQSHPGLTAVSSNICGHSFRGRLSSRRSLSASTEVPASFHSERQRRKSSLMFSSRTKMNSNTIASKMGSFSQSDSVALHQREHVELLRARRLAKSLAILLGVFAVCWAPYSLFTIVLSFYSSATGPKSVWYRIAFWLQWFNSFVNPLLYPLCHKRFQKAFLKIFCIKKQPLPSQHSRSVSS

[13] = Plasma concentration in rat at 1 mg/kg, ip after 5 hrs; type: ADME, organism-based; set-up: dose 1 mg/kg, route intraperitoneal
Histamine H2 receptor = Histamine H2 receptor (Homo sapiens, UniProt P25021); assay: Displacement of [3H]tiotidine from human histamine H2 receptor; conditions: read-out: pKi (converted)
Sequence of Histamine H2 receptor (P25021 whole entry): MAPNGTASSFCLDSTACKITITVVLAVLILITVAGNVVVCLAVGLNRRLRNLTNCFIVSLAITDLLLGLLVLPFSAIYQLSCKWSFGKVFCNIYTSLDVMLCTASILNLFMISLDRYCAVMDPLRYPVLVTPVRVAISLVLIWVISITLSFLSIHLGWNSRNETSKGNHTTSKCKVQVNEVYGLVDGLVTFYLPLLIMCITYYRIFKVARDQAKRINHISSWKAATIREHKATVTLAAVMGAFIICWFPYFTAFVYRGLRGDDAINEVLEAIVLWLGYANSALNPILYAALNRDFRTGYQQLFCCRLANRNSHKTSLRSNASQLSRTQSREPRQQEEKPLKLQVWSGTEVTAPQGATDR

[14] = Drug level in rat brain at 1 mg/kg, ip after 5 hrs; type: ADME, organism-based; set-up: dose 1 mg/kg, route intraperitoneal; conditions: read-out: Drug uptake
[15] = biological target: T3, Alpha-2C adrenergic receptor (Homo sapiens, UniProt P18825); assay: Displacement of [3H]rauwolscine from human adrenergic alpha 2C4 receptor expressed in mouse LTK- cells; type: cell-based
T3 sequence (P18825 whole entry): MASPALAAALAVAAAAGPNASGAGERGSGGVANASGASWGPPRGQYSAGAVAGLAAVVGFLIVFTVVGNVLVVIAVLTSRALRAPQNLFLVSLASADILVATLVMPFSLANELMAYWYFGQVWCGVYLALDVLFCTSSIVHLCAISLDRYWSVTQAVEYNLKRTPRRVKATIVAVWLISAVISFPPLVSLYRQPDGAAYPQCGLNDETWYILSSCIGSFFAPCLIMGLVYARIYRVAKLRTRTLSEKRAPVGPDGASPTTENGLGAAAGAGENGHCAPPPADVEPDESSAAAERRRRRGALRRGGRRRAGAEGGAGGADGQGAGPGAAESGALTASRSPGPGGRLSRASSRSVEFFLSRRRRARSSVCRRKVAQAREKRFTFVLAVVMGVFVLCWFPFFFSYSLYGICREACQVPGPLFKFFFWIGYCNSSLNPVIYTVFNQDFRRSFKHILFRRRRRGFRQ

[16] = Drug level in rat blood at 1 mg/kg, ip after 24 hrs; type: ADME, organism-based; set-up: dose 1 mg/kg, route intraperitoneal; conditions: read-out: Drug uptake
[17] = Plasma concentration in rat at 1 mg/kg, ip after 24 hrs; type: ADME, organism-based; set-up: dose 1 mg/kg, route intraperitoneal
[18] = Drug level in rat blood at 1 mg/kg, ip after 5 hrs; type: ADME, organism-based; set-up: dose 1 mg/kg, route intraperitoneal; conditions: read-out: Drug uptake
Histamine H3 receptor [19] = biological target: T1, Histamine H3 receptor; assay: Displacement of [3H]NAMH from rat full length histamine H3 receptor expressed in rat C6 cells; type: cell-based
[20] = Ratio of drug level in brain to plasma at 1 mg/kg, ip after 24 hrs; type: ADME, organism-based; set-up: dose 1 mg/kg, route intraperitoneal; conditions: rat
Rattus norvegicus = assay: Toxicity in rat assessed as CNS side effects at 1.3 to 13 mg/kg, ip; type: organism-based; set-up: dose 1.3-13 mg/kg, route intraperitoneal; conditions: in vivo
[21] = Plasma concentration in rat at 1 mg/kg, ip after 1 hr; type: ADME, organism-based; set-up: dose 1 mg/kg, route intraperitoneal
Histamine H1 receptor = Histamine H1 receptor (Homo sapiens, UniProt P35367); assay: Displacement of [3H]mepyramine from human histamine H1 receptor; conditions: read-out: pKi (converted)
Sequence of Histamine H1 receptor (P35367 whole entry): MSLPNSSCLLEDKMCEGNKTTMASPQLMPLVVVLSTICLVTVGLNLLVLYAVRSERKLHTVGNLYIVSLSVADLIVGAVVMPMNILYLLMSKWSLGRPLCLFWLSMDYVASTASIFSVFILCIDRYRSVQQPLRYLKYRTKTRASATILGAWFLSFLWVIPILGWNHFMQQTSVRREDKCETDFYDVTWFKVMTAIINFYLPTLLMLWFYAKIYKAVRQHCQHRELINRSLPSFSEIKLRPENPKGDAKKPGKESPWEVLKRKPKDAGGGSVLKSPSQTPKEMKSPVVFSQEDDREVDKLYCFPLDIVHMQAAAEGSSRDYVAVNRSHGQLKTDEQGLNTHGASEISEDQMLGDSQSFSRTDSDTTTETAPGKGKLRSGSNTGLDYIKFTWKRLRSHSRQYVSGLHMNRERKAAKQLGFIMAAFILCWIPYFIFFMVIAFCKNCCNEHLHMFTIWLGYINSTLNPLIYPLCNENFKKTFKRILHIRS

[22] = Drug level in rat brain at 1 mg/kg, ip after 24 hrs; type: ADME, organism-based; set-up: dose 1 mg/kg, route intraperitoneal; conditions: read-out: Drug uptake
[23] = Ratio of drug level in brain to plasma at 1 mg/kg, ip after 5 hrs; type: ADME, organism-based; set-up: dose 1 mg/kg, route intraperitoneal; conditions: rat
[24] = Selectivity ratio for human adrenergic alpha 2C4 receptor over human H3 receptor
[25] = Ratio of drug level in brain to plasma at 1 mg/kg, ip after 1 hr; type: ADME, organism-based; set-up: dose 1 mg/kg, route intraperitoneal; conditions: rat
[26] = Drug level in rat brain at 1 mg/kg, ip after 1 hr; type: ADME, organism-based; set-up: dose 1 mg/kg, route intraperitoneal; conditions: read-out: Drug uptake
Histamine H3 receptor [27] = biological target: T2, Histamine H3 receptor; assay: Displacement of [3H]NAMH from histamine H3 receptor in human cortex
[28] = Drug level in rat blood at 1 mg/kg, ip after 1 hr; type: ADME, organism-based; set-up: dose 1 mg/kg, route intraperitoneal; conditions: read-out: Drug uptake
[29] = biological target: T4, Alpha-2A adrenergic receptor (Homo sapiens, UniProt P08913); assay: Displacement of [3H]rauwolscine from human adrenergic alpha 2C10 receptor expressed in mouse LTK- cells; type: cell-based
T4 sequence (P08913 whole entry): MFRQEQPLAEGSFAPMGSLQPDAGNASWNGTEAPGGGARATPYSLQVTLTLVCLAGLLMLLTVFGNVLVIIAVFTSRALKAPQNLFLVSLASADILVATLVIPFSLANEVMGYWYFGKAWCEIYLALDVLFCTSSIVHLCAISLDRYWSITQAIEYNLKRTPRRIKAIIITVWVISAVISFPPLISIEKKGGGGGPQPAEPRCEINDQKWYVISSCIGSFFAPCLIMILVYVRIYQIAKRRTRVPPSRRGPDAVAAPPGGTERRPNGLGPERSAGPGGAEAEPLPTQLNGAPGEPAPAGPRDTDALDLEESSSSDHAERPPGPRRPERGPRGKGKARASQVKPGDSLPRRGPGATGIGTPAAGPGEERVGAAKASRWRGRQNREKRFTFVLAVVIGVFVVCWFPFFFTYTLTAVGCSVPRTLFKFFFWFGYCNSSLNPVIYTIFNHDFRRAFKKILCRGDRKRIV

[30] = biological target: Histamine H3 receptor (Cavia porcellus) (UniProt Q9JI35); conditions: Ileum
Sequence of Histamine H3 receptor (Cavia porcellus) (Q9JI35 whole entry): as the sequence (Q9JI35 whole entry) above

T1 sequence (Q9QYN8 whole entry): as the sequence (Q9QYN8 whole entry) above

C[C@H]1[C@H]2CC[C@H]3[C@@H]4CC=C5C[C@@H](N(C)C(=O)c6ccccc6)CC[C@]5(C)[C@H]4CC[C@]23CN1C
Ki (Histamine H3 receptor [1]; read-out: Ki): 38 nM
Ki (Histamine H3 receptor [2]): 12.3 nM

S=C(NC1CCCCC1)N1CCC(c2cnc[nH]2)CC1 [THIOPERAMIDE]
pKi [3]: 4.95
Kb (Histamine H3 receptor [4]): 3.63 nM
pKi [5]: 5.64
pKb [6]: 9.11
pKb (Histamine H3 receptor [7]): 6.1
pKb [8]: 7.61
pKb [9]: 8.13
pKb (Histamine H3 receptor [10]): 6.82
Ki (Histamine H3 receptor [1]; read-out: pKi (converted)): 7.08 nM
pKi [11]: 5.25
pKb (Histamine H3 receptor [12]): 7.39

C[C@H]1[C@H]2CC[C@H]3[C@@H]4CC=C5C[C@@H](N(C)C)CC[C@]5(C)[C@H]4CC[C@]23CN1C [CONESSINE]
Ki (Histamine H4 receptor): > 10000 nM
concentration at 5 h [13]: 89 ng/mL
pKi [3]: 5.72
Kb (Histamine H3 receptor [4]): 282 nM
pKi [5]: < 5
Ki (Histamine H2 receptor): > 10000 nM
concentration at 5 h [14]: 6800 ng/g
Ki [15]: 10.6 nM
concentration at 24 h [16]: 102 ng/mL
pKb (Histamine H3 receptor [7]): 6.14
concentration at 24 h [17]: 37 ng/mL
concentration at 5 h [18]: 306 ng/mL
Ki (Histamine H3 receptor [19]; read-out: pKi (converted)): 12.3 nM
Kp at 24 h [20]: 114
pKb [8]: 6.99
Activity (Rattus norvegicus): Non-toxic
pKb (Histamine H3 receptor [10]): 8.08
concentration at 1 h [21]: 148 ng/mL
Ki (Histamine H3 receptor [1]; read-out: pKi (converted)): 24.5 nM
Ki (Histamine H1 receptor): > 10000 nM
concentration at 24 h [22]: 4140 ng/g
Ki (Histamine H3 receptor [2]): 5.37 nM
pKi [11]: < 5
Kp at 5 h [23]: 95.4
Selectivity ratio [24]: 2
Kp at 1 h [25]: 46
pKb (Histamine H3 receptor [12]): 7.96
concentration at 1 h [26]: 6570 ng/g
Ki (Histamine H3 receptor [27]): 3.47 nM
concentration at 1 h [28]: 444 ng/mL
Ki [29]: 661 nM

CC(=O)N(C)[C@H]1CC[C@@]2(C)C(=CC[C@H]3[C@@H]4CC[C@@H]5[C@H](C)N(C)C[C@@]54CC[C@@H]32)C1
Ki (Histamine H3 receptor [1]; read-out: Ki): 257 nM
Ki (Histamine H3 receptor [2]): 110 nM

CCS(=O)(=O)N(C)[C@H]1CC[C@@]2(C)C(=CC[C@H]3[C@@H]4CC[C@@H]5[C@H](C)N(C)C[C@@]54CC[C@@H]32)C1
Ki (Histamine H3 receptor [1]; read-out: Ki): 141 nM
Ki (Histamine H3 receptor [2]): 23.4 nM

C[C@H]1[C@H]2CC[C@H]3[C@@H]4CC=C5C[C@@H](N(C)S(=O)(=O)N(C)C)CC[C@]5(C)[C@H]4CC[C@]23CN1C
Ki (Histamine H3 receptor [1]; read-out: Ki): 240 nM
Ki (Histamine H3 receptor [2]): 30.9 nM

COC(=O)N(C)[C@H]1CC[C@@]2(C)C(=CC[C@H]3[C@@H]4CC[C@@H]5[C@H](C)N(C)C[C@@]54CC[C@@H]32)C1
Ki (Histamine H3 receptor [1]; read-out: Ki): 257 nM
Ki (Histamine H3 receptor [2]): 60.3 nM

C[C@H]1[C@H]2CC[C@H]3[C@@H]4CC=C5C[C@@H](N(C)S(=O)(=O)c6ccc(C#N)cc6)CC[C@]5(C)[C@H]4CC[C@]23CN1C
Ki (Histamine H3 receptor [1]; read-out: Ki): 138 nM
Ki (Histamine H3 receptor [2]): 19 nM

O=C(c1ccc(OCCCc2c[nH]cn2)cc1)C1CC1 [CIPROXIFAN]
pKi [3]: 4.78
pKi [5]: 6.52
pKb [6]: 9.42
pKb (Histamine H3 receptor [7]): 6.59
pKb [30]: 8.12
pKb [8]: 9.2
pKb [9]: 8.78
pKb (Histamine H3 receptor [10]): 6.84
pKi [11]: 4.73
pKb (Histamine H3 receptor [12]): 7.07

O=C(c1ccc(OCCCc2cnc[nH]2)cc1)C1CC1 [CIPROXIFAN]
Ki (Histamine H3 receptor [1]; read-out: pKi (converted)): 0.631 nM

NCCC(=O)NCCc1c[nH]cn1 [CARCININE]
Ki (Histamine H3 receptor [19]; read-out: Ki): 294 nM

C[C@H]1[C@H]2CC[C@H]3[C@@H]4CC=C5C[C@@H](N(C)S(=O)(=O)c6ccccc6)CC[C@]5(C)[C@H]4CC[C@]23CN1C
Ki (Histamine H3 receptor [1]; read-out: Ki): 61.7 nM
Ki (Histamine H3 receptor [2]): 7.76 nM

COc1ccc(C/C(=N\O)C(=O)NCCc2c[nH]cn2)cc1Br [VERONGAMINE]
IC50 (Histamine H3 receptor [4]): 830 nM
